# Tests used:
# [1] = Liposome leakage (carboxyfluorescein release); type: biochemical; settings: control experiments with EDTA alone
# Protocol: Subsequently, buffer (10 mM Tris, pH 7.4) was added together with 0.1 M carboxyfluorescein (CF) (Sigma, St Louis, MO). After hydration, the lipid mixture was subjected to eight freeze-thaw cycles consisting of freezing in liquid nitrogen and heating to 60°C. Unilamellar liposomes of about Ø140 nm were generated by multiple extrusions through polycarbonate filters (pore size 100 nm) mounted in a […] (Avestin, Ottawa, Canada) at 22°C. Untrapped CF was then removed by two gel filtrations (Sephadex G-50) at 22°C, with Tris buffer as eluent. CF release was determined by monitoring the emitted fluorescence at 520 nm from liposome dispersions (10 mM lipid in 10 mM Tris). An absolute leakage scale was obtained by disrupting the liposomes at the end of the experiment through addition of 0.8 mM Triton X100 (Sigma, St Louis, MO), causing 100% release and dequenching of CF. Although calcein is frequently used for pH-dependent leakage studies, the high charge of this dye has been noted to influence its leakage behavior in the presence of highly cationic peptides. Instead, therefore, CF was used as a leakage marker at both pH 6.0 and 7.4, avoiding pH-dependent fluorescence effects through neutralization prior to probing the limiting leakage in case of pH 6.0 leakage. Throughout, a SPEX-fluorolog 1650 0.22-m double spectrometer (SPEX Industries, Edison, NJ) was used for the liposome leakage assay. Measurements were performed in at least triplicate at 37°C.
# [2] = system: Candida albicans ATCC 90028; assay: CFU assay with C. albicans; type: cell-based; settings: for Estimate (difference between means of log values): control - treatment
# Source text: Candida albicans strains: ATCC 90028, CAF-1-2, SC5814, BM4f35II68, vaginal clinical isolates from Dept. of Clincal Microbiology, Skåne University Hospital, SO_303369 and SO_503471. Candida parapsilosis strains: ATCC 90018, BD1800, BD17837, and BM24/68/09. Candida glabrata strains: ATCC 90030, clinical isolates from Dept. of Clincal Microbiology, Skåne University Hospital, SO_3336, SO_3400 and SO_503413. All strains were inoculated from frozen culture and grown in Yeast extract-Peptone-Dextrose (YPD) (Sigma) and on Sabourand Dextrose Broth (SAB) (Difco) plates at 30°C with 5% (v/v) CO2. If not otherwise stated, ATCC 90028 was used for candidacidal experiments.
# Candida albicans was grown over night, washed, and resuspended in 10 mM Tris, 5 mM glucose, pH 7.4 or pH 4. Approximately 4×10^3 to 10^4 CFU of C. albicans were incubated with the test substance in low or neutral pH buffer for 4 h at 37°C. After incubation, the suspension was diluted and plated. Colonies were counted after two days incubation of the plates at 30°C. Bacteria from overnight cultures were inoculated in fresh medium and grown for 3 h, washed in 10 mM Tris, 5 mM glucose pH 7.4. Approximately 8×10^4 CFU were incubated with sample in 10 mM Tris, 5 mM glucose pH 7.4 or pH 4 for 1 h at 37°C, diluted, plated and incubated over night at 37°C and the colonies counted.
# Statistical analysis was performed using SAS 9.2 software (SAS Institute, Cary, NC). Colony counts were log transformed. In order to choose the statistical method, interactions between the Treatment and Experiment were investigated. Treatments were screened by doing pair wise comparisons of each treatment to a control. Statistical tests used for the comparisons included MIXED procedure and LSMEANS statement. All tests where P-value<.05 were considered to indicate statistical significance. P-values were not adjusted for the multiple comparisons.
# “Estimate” is the estimate of the difference between means of log values of treatment 1 and treatment 2
# [3] = 5 µM, pH 4, with EDTA, experiment 1
# [4] = 5 µM, pH 4, with EDTA, experiment 2
# [5] = 5 µM, pH 4, with EDTA, experiment 3
# [6] = 5 µM, pH 4, without EDTA, experiment 1
# [7] = 5 µM, pH 4, without EDTA, experiment 2
# [8] = 5 µM, pH 4, without EDTA, experiment 3
compound,measurement,setting,value
"O=C(O)CN(CCN(CC(=O)O)CC(=O)O)CC(=O)O [EDTA, reference compound]",Liposome rupture,[1],no liposome rupture
same,Estimate (difference between means of log values),"[2]; 25 µM, pH 4, experiment 1",0.3309
same,Estimate (difference between means of log values),"[2]; 25 µM, pH 4, experiment 2",-0.2077
same,Estimate (difference between means of log values),"[2]; 25 µM, pH 4, experiment 3",-0.01878
"EISCCTLVSTPVGYDKDNCQ [MSP4, synthetic MSP-derived peptide]",Estimate (difference between means of log values),[2]; [3],-0.3731
same,Estimate (difference between means of log values),[2]; [4],-0.4012
same,Estimate (difference between means of log values),[2]; [5],-0.1411
same,Estimate (difference between means of log values),[2]; [6],-0.5304
same,Estimate (difference between means of log values),[2]; [7],-0.8100
same,Estimate (difference between means of log values),[2]; [8],-0.2155
"EWQTDNCETCTCYETEISCC [MSP3, synthetic MSP-derived peptide]",Estimate (difference between means of log values),[2]; [3],0.09392
same,Estimate (difference between means of log values),[2]; [4],0.05166
same,Estimate (difference between means of log values),[2]; [5],-0.02824
same,Estimate (difference between means of log values),[2]; [6],-0.2487
same,Estimate (difference between means of log values),[2]; [7],-0.7316
same,Estimate (difference between means of log values),[2]; [8],-0.09956
"IVVEKKDPKKTCSVSEWII [MSP6, synthetic MSP-derived peptide]",Estimate (difference between means of log values),[2]; [3],1.6087
same,Estimate (difference between means of log values),[2]; [4],3.2325
same,Estimate (difference between means of log values),[2]; [5],0.6931
same,Estimate (difference between means of log values),[2]; [6],-0.00322
same,Estimate (difference between means of log values),[2]; [7],0.07848
same,Estimate (difference between means of log values),[2]; [8],0.9139
"KDNCQRIFKKEDCKYIVVEK [MSP5, synthetic MSP-derived peptide encompassing residues 61–80]",Fungicidal activity in CFU assay (rank among overlapping peptides),"[2]; 5 µM, pH 4",highest fungicidal activity of the tested peptides
same,Estimate (difference between means of log values),[2]; [3],2.0492
same,Estimate (difference between means of log values),[2]; [4],4.5365
same,Estimate (difference between means of log values),[2]; [5],3.0952
same,Estimate (difference between means of log values),[2]; [6],0.5704
same,Estimate (difference between means of log values),[2]; [7],0.3334
same,Estimate (difference between means of log values),[2]; [8],0.6913
LL-37 [reference compound],Estimate (difference between means of log values),"[2]; 50 µM LL-37, pH 4, + 50 µM calcium, experiment 1",1.6956
same,Estimate (difference between means of log values),"[2]; 50 µM LL-37, pH 4, + 50 µM calcium, experiment 2",1.8880
same,Estimate (difference between means of log values),"[2]; 50 µM LL-37, pH 4, + 75 µM calcium, experiment 1",1.5909
same,Estimate (difference between means of log values),"[2]; 50 µM LL-37, pH 4, + 75 µM calcium, experiment 2",1.5305
same,Estimate (difference between means of log values),"[2]; 50 µM LL-37, pH 4, + 100 µM calcium, experiment 1",1.3942
same,Estimate (difference between means of log values),"[2]; 50 µM LL-37, pH 4, + 100 µM calcium, experiment 2",1.4384
same,Estimate (difference between means of log values),"[2]; 50 µM LL-37, pH 4, + 200 µM calcium, experiment 1",1.3064
same,Estimate (difference between means of log values),"[2]; 50 µM LL-37, pH 4, + 200 µM calcium, experiment 2",1.4253
same,Estimate (difference between means of log values),"[2]; 50 µM LL-37, pH 4, no calcium, experiment 1",1.6339
same,Estimate (difference between means of log values),"[2]; 50 µM LL-37, pH 4, no calcium, experiment 2",2.4025
same,Estimate (difference between means of log values),"[2]; 50 µM LL-37, pH 7.4, + 50 µM calcium, experiment 1",2.0757
same,Estimate (difference between means of log values),"[2]; 50 µM LL-37, pH 7.4, + 50 µM calcium, experiment 2",2.0565
same,Estimate (difference between means of log values),"[2]; 50 µM LL-37, pH 7.4, + 50 µM calcium, experiment 3",2.6878
same,Estimate (difference between means of log values),"[2]; 50 µM LL-37, pH 7.4, + 75 µM calcium, experiment 1",1.1627
same,Estimate (difference between means of log values),"[2]; 50 µM LL-37, pH 7.4, + 75 µM calcium, experiment 2",2.6753
same,Estimate (difference between means of log values),"[2]; 50 µM LL-37, pH 7.4, + 75 µM calcium, experiment 3",2.9703
same,Estimate (difference between means of log values),"[2]; 50 µM LL-37, pH 7.4, + 100 µM calcium, experiment 1",1.6404
same,Estimate (difference between means of log values),"[2]; 50 µM LL-37, pH 7.4, + 100 µM calcium, experiment 2",2.5186
same,Estimate (difference between means of log values),"[2]; 50 µM LL-37, pH 7.4, + 100 µM calcium, experiment 3",2.6194
same,Estimate (difference between means of log values),"[2]; 50 µM LL-37, pH 7.4, + 200 µM calcium, experiment 1",1.4145
same,Estimate (difference between means of log values),"[2]; 50 µM LL-37, pH 7.4, + 200 µM calcium, experiment 2",2.7659
same,Estimate (difference between means of log values),"[2]; 50 µM LL-37, pH 7.4, + 200 µM calcium, experiment 3",3.5282
same,Estimate (difference between means of log values),"[2]; 50 µM LL-37, pH 7.4, no calcium, experiment 1",3.2986
same,Estimate (difference between means of log values),"[2]; 50 µM LL-37, pH 7.4, no calcium, experiment 2",3.2280
same,Estimate (difference between means of log values),"[2]; 50 µM LL-37, pH 7.4, no calcium, experiment 3",4.0296
"RKCMDLKGNKHPINSEWQTD [MSP2, synthetic MSP-derived peptide]",Estimate (difference between means of log values),[2]; [3],0.5727
same,Estimate (difference between means of log values),[2]; [4],0.2951
same,Estimate (difference between means of log values),[2]; [5],0.5877
same,Estimate (difference between means of log values),[2]; [6],-0.4638
same,Estimate (difference between means of log values),[2]; [7],-0.7678
same,Estimate (difference between means of log values),[2]; [8],0.2466
"SCYFIPNEGVPGDSTRKCMD [MSP1, synthetic MSP-derived peptide]",Estimate (difference between means of log values),[2]; [3],-0.3564
same,Estimate (difference between means of log values),[2]; [4],-0.5558
same,Estimate (difference between means of log values),[2]; [5],-0.1369
same,Estimate (difference between means of log values),[2]; [6],-0.6949
same,Estimate (difference between means of log values),[2]; [7],-0.6938
same,Estimate (difference between means of log values),[2]; [8],-0.2057
"TNKCQKILNKKTCTYTVVEK [PMSP, peptide from porcine MSP corresponding to human MSP61–80]",Effect of calcium and magnesium on antifungal activity,[2]; data not shown,inhibited by calcium but not magnesium
same,Fungicidal activity compared with human MSP61–80,"[2]; pH 4, with and without EDTA, Figure S4",even higher fungicidal activity than its human counterpart
same,Difference of mean colony counts between control and treatment,"[2]; pH 4, with and without EDTA, three independent experiments",Significant difference (reduction)
